Numbered stars: 1 amine (or outer) side, 2 acyl side, 3 side chain; on linkers, the order of the positions; unused ones are H or OH. Bridge positions count the residues as written; N and C are the ends. Square brackets hold non-standard residues; d marks the D form. Side chains are listed from the residue outwards. Peptide text beside a SMILES is read from it. * marks the point of attachment. ξ: configuration not given here. NH(CH2)2(4-DOTA-piperazinyl) = O=C(O)CN1CCN(CC(=O)O)CCN(CC(=O)N2CCN(CCN*)CC2)CCN(CC(=O)O)CC1; NH(CH2)2O(CH2)2NHDOTA = O=C(O)CN1CCN(CC(=O)O)CCN(CC(=O)NCCOCCN*)CCN(CC(=O)O)CC1; X2 = O=C(O)CN1CCN(CC(=O)O)CCN(CC(=O)N2CCN(CCCN*)CC2)CCN(CC(=O)O)CC1; DOTA = O=C(O)CN1CCN(CC(=O)O)CCN(CC(=O)*)CCN(CC(=O)O)CC1; Azetidine3carboxylic = O=C(C1CN([*:1])C1)[*:2]; Pyridine(3,5-bisCH2) = c1ncc(C[*:2])cc1C[*:1]; mXylylene = c1cc(C[*:1])cc(C[*:2])c1; Ethylenediamine = C(CN[*:2])N[*:1]; Cha = N[C@@H](CC1CCCCC1)C(=O)O; d(β3hD) = NC(CC(=O)O)CC(=O)O; Dab = NCC[C@H](N)C(=O)O; Dap = NC[C@H](N)C(=O)O; Hexanoyl = CCCCCC(=O)*; CO = O=C([*:1])[*:2]; ξP = O=C(O)C1CCCN1; Ava = NCCCCC(=O)O; GABA = NCCCC(=O)O; ξC = NC(CS)C(=O)O; NHBu = CCCCN*
Target: T1, FAP protein (Homo sapiens, UniProt Q12884)
T1 construct: purchased Sinobiological
T1 sequence (Q12884 1-760): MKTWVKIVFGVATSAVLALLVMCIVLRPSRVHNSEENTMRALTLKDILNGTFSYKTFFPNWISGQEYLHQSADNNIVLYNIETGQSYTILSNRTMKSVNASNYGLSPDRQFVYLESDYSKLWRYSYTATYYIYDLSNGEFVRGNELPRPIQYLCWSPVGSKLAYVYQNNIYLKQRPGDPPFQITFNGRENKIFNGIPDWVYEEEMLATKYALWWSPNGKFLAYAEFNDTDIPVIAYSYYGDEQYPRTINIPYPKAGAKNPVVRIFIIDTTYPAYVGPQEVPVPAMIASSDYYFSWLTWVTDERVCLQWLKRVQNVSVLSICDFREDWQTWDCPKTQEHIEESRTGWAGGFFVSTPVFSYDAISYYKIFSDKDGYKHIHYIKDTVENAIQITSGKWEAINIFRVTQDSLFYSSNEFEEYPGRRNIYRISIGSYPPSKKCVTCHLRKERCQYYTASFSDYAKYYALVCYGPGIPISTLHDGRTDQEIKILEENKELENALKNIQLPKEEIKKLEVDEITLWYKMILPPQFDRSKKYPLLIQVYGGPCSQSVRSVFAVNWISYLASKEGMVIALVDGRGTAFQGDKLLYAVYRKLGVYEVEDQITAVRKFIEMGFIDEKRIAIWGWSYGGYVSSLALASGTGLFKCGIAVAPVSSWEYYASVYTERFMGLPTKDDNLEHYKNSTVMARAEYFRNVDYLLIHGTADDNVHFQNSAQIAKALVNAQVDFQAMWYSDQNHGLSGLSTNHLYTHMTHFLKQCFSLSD
Experiment: Biacore test of compound affinity to FAP protein
Details: Biacore 8K, SA chip, 15° C., 1:1 binding model; for Kd: read-out: pKD (FAP) (converted)
Description: The Biacore 8K (Cytiva) instrument was used to detect ligand binding of the FAP protein (Sinobiological). FAP protein was captured on the SA chip. […] The sensor surface was conditioned by injecting 1M NaCl three consecutive times in 50 mM NaOH. After each ligand injection, additional cleaning was performed using isopropanol in 1M NaCl and 50 mM NaOH (flow path 1 and 2, flow rate of 10 μL/min, injection time of 60 s). […] The analyte was run under the following conditions: analysis temperature of 15° C., analysis step=all set to LMW kinetics; cycle type=single cycle (contact time of 90 s, dissociation time of 1800 s, flow rate of 30 μL/min, flow channels 1 and 2); channel detection=2-1. Data was evaluated using the Biacore Insight Evaluation Software, and the data were fitted to a 1:1 binding model. The Biacore results are shown in Table 2 below: pKD=−Log KD, where KD is the binding affinity of the compound to the FAP protein as measured by Biacore.

Kd | pKD (FAP) | SMILES
10 to 100 nM |  | CCCCCC(=O)N[C@H]1CSCc2cncc(c2)CSCC(C(=O)N[C@@H](CCC(=O)NCCOCCNC(=O)CN2CCN(CC(=O)O)CCN(CC(=O)O)CCN(CC(=O)O)CC2)C(=O)O)NC(=O)[C@H](Cc2ccccc2)NC(=O)[C@H](CCC(N)=O)NC(=O)[C@H]([C@@H](C)O)NC(=O)C2CCCN2C(=O)C2CN(C2)C1=O (stereo partly drawn) [JHDC32, Hex[Cys(3MePy)-hhy39-Pro-Thr-Gln-Phe-Cys]-Glu-(DAPEG2-DOTA)-OH] (Hexanoyl-C[Azetidine3carboxylic][ξP]TQF[ξC]E(NH(CH2)2O(CH2)2NHDOTA)-OH; linker 1-7 via Pyridine(3,5-bisCH2))
10 to 100 nM |  | CCCCNC(=O)N[C@H]1CSCc2cncc(c2)CSCC(C(=O)N[C@@H](CCC(=O)NCCOCCNC(=O)CN2CCN(CC(=O)O)CCN(CC(=O)O)CCN(CC(=O)O)CC2)C(=O)O)NC(=O)[C@H](Cc2ccccc2)NC(=O)[C@H](CCC(N)=O)NC(=O)[C@H]([C@@H](C)O)NC(=O)C2CCCN2C(=O)C2CN(C2)C1=O (stereo partly drawn) [JHDC33, nBu-urea-[Cys(3MePy)-hhy39-Pro-Thr-Gln-Phe-Cys]-Glu-(DAPEG2-DOTA)-OH] ({NHBu-CO}-C[Azetidine3carboxylic][ξP]TQF[ξC]E(NH(CH2)2O(CH2)2NHDOTA)-OH; linker 1-7 via Pyridine(3,5-bisCH2))
10 to 100 nM |  | CCCCNC(=O)N[C@H]1CSCc2cccc(c2)CSCC(C(=O)N[C@H](CC(=O)O)CC(=O)NCCOCCNC(=O)CN2CCN(CC(=O)O)CCN(CC(=O)O)CCN(CC(=O)O)CC2)NC(=O)[C@H](Cc2ccccc2)NC(=O)[C@H](CCC(N)=O)NC(=O)[C@H]([C@@H](C)O)NC(=O)C2CCCN2C(=O)C2CN(C2)C1=O (stereo partly drawn) [JHDC34, nBu-urea-[Cys(3MeBn)-hhy39-Pro-Thr-Gln-Phe-Cys]-p-Glu-(DAPEG2-DOTA)-OH] ({NHBu-CO}-C[Azetidine3carboxylic][ξP]TQF[ξC][d(β3hD)]-{NH(CH2)2O(CH2)2NHDOTA}; linker 1-7 via mXylylene)
10 to 100 nM |  | CCCCNC(=O)N[C@H]1CSCc2cccc(c2)CSCC(C(=O)N[C@H](CC(=O)O)CC(=O)NCCNC(=O)CN2CCN(CC(=O)O)CCN(CC(=O)O)CCN(CC(=O)O)CC2)NC(=O)[C@H](Cc2ccccc2)NC(=O)[C@H](CCC(N)=O)NC(=O)[C@H]([C@@H](C)O)NC(=O)C2CCCN2C(=O)C2CN(C2)C1=O (stereo partly drawn) [JHDC35, nBu-urea-[Cys(3MeBn)-hhy39-Pro-Thr-Gln-Phe-Cys]-p-Glu-(EDA-DOTA)-OH] ({NHBu-CO}-C[Azetidine3carboxylic][ξP]TQF[ξC][d(β3hD)]-{Ethylenediamine-DOTA}; linker 1-7 via mXylylene)
10 to 100 nM |  | CCCCCC(=O)N[C@H]1CSCc2cccc(c2)CSCC(C(=O)N[C@H](CC(=O)O)CC(=O)NCCOCCNC(=O)CN2CCN(CC(=O)O)CCN(CC(=O)O)CCN(CC(=O)O)CC2)NC(=O)[C@H](Cc2ccccc2)NC(=O)[C@H](CCC(N)=O)NC(=O)[C@H]([C@@H](C)O)NC(=O)C2CCCN2C(=O)C2CN(C2)C1=O (stereo partly drawn) [JHDC36, Hex-[Cys(3MeBn)-hhy39-Pro-Thr-Gln-Phe-Cys]-β-Glu-(DAPEG2-DOTA)-OH] (Hexanoyl-C[Azetidine3carboxylic][ξP]TQF[ξC][d(β3hD)]-{NH(CH2)2O(CH2)2NHDOTA}; linker 1-7 via mXylylene)
10 to 100 nM |  | CCCCCC(=O)N[C@H]1CSCc2cccc(c2)CSCC(C(=O)N[C@@H](CNC(=O)CCCCNC(=O)CN2CCN(CC(=O)O)CCN(CC(=O)O)CCN(CC(=O)O)CC2)C(=O)O)NC(=O)[C@H](Cc2ccccc2)NC(=O)[C@H](CCC(N)=O)NC(=O)[C@H]([C@@H](C)O)NC(=O)C2CCCN2C(=O)C2CN(C2)C1=O (stereo partly drawn) [JHDC40, Hex-[Cys(3MeBn)-hhy39-Pro-Thr-Gln-Phe-Cys]-DAPA-(APTA-DOTA)-OH] (Hexanoyl-C[Azetidine3carboxylic][ξP]TQF[ξC][Dap]([Ava-DOTA])-OH; linker 1-7 via mXylylene)
10 to 100 nM |  | CCCCNC(=O)N[C@H]1CSCc2cccc(c2)CSCC(C(=O)N[C@@H](CNC(=O)CCCCNC(=O)CN2CCN(CC(=O)O)CCN(CC(=O)O)CCN(CC(=O)O)CC2)C(=O)O)NC(=O)[C@H](Cc2ccccc2)NC(=O)[C@H](CCC(N)=O)NC(=O)[C@H]([C@@H](C)O)NC(=O)C2CCCN2C(=O)C2CN(C2)C1=O (stereo partly drawn) [JHDC41, nBu-urea-[Cys(3MeBn)-hhy39-Pro-Thr-Gln-Phe-Cys]-DAPA-(APTA-DOTA)-OH] ({NHBu-CO}-C[Azetidine3carboxylic][ξP]TQF[ξC][Dap]([Ava-DOTA])-OH; linker 1-7 via mXylylene)
< 10 nM |  | CCCCCC(=O)N[C@H]1CSCc2cccc(c2)CSCC(C(=O)N[C@@H](CCC(=O)NCCCN2CCN(C(=O)CN3CCN(CC(=O)O)CCN(CC(=O)O)CCN(CC(=O)O)CC3)CC2)C(=O)O)NC(=O)[C@H](Cc2ccccc2)NC(=O)[C@H](CCC(N)=O)NC(=O)[C@H]([C@@H](C)O)NC(=O)C2CCCN2C(=O)C2CN(C2)C1=O (stereo partly drawn) [JHDC45, Hex-[Cys(3MeBn)-hhy39-Pro-Thr-Gln-Phe-Cys]-Glu-(aminopropylpiperazine-DOTA)-NH2] (Hexanoyl-C[Azetidine3carboxylic][ξP]TQF[ξC]E(X2)-OH; linker 1-7 via mXylylene)
 | B (B: 7<pKD<8) | CCCCNC(=O)N[C@H]1CSCc2cccc(c2)CSC[C@@H](C(=O)N[C@@H](CCC(=O)NCCN2CCN(C(=O)CN3CCN(CC(=O)O)CCN(CC(=O)O)CCN(CC(=O)O)CC3)CC2)C(=O)O)NC(=O)[C@H](CC2CCCCC2)NC(=O)[C@H](CCC(N)=O)NC(=O)[C@H]([C@@H](C)O)NC(=O)[C@@H]2CCCN2C(=O)C2CN(C2)C1=O [JHDC46, nBu-urea-[Cys(3MePy)-hhy39-Pro-Thr-Gln-hhy34-Cys]-Glu-(aminoethylpiperazine-DOTA)-OH] ({NHBu-CO}-C[Azetidine3carboxylic]PTQ[Cha]CE(NH(CH2)2(4-DOTA-piperazinyl))-OH; linker 1-7 via mXylylene)
10 to 100 nM |  | CCCCNC(=O)N[C@H]1CSCc2cccc(c2)CSC[C@@H](C(=O)N[C@@H](CCC(=O)NCCN2CCN(C(=O)CN3CCN(CC(=O)O)CCN(CC(=O)O)CCN(CC(=O)O)CC3)CC2)C(=O)O)NC(=O)[C@H](Cc2ccccc2)NC(=O)[C@H](CCC(N)=O)NC(=O)[C@H]([C@@H](C)O)NC(=O)C2CCCN2C(=O)C2CN(C2)C1=O (stereo partly drawn) [JHDC50, nBu-urea-[Cys(3MeBn)-hhy39-Pro-Thr-Gln-Phe-Cys]-Glu-(aminoethylpiperazine-DOTA)-OH] ({NHBu-CO}-C[Azetidine3carboxylic][ξP]TQFCE(NH(CH2)2(4-DOTA-piperazinyl))-OH; linker 1-7 via mXylylene)
< 10 nM |  | CCCCNC(=O)N[C@H]1CSCc2cccc(c2)CSCC(C(=O)N[C@@H](CCNC(=O)CCCNC(=O)CN2CCN(CC(=O)O)CCN(CC(=O)O)CCN(CC(=O)O)CC2)C(=O)O)NC(=O)[C@H](CC2CCCCC2)NC(=O)[C@H](CCC(N)=O)NC(=O)[C@H]([C@@H](C)O)NC(=O)[C@@H]2CCCN2C(=O)C2CN(C2)C1=O (stereo partly drawn) [JHDC55, nBu-urea-[Cys(3MeBn)-hhy39-Pro-Thr-Gln-hhy34-Cys]-DABA-(ABA-DOTA)-OH] ({NHBu-CO}-C[Azetidine3carboxylic]PTQ[Cha][ξC][Dab]([GABA-DOTA])-OH; linker 1-7 via mXylylene)

— patent publication US20260274894A1, “CYCLIC POLYPEPTIDE COMPOUND AND USE THEREOF” (BIVISION PHARMACEUTICALS, INC., priority 2023, published 2026)
